Measurements published in patent US7217722B2 (Kirin Beer Kabushiki Kaisha, priority 2000, dated 2007).

What follows are compounds tested against Rho kinase (fused protein of bovine Rho kinase catalyst region and glutathione S-transferase) (Bos taurus, UniProt Q28021) (assay: Rho kinase inhibitory activity (phosphorylation of S6 231–239 substrate, γ32P-ATP)). Settings: concentration inhibiting substrate phosphorylation by 50%.
Rho kinase (fused protein of bovine Rho kinase catalyst region and glutathione S-transferase), sequence (Q28021 92-354 limits assumed): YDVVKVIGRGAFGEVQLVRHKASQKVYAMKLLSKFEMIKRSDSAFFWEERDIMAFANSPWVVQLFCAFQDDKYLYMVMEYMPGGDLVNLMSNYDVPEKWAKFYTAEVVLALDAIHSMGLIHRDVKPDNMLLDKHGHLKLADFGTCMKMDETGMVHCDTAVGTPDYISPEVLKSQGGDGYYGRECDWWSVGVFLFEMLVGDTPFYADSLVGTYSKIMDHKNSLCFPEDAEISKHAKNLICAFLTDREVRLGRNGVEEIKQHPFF
Assay type: biochemical
Experimental: This permits the substrate to be labeled with the radioisotope.
Thereafter, the substrate was adsorbed to a filter paper. ATP was washed away with a phosphoric acid solution, and the amount of the phosphorylated substrate was then measured with a liquid scintillation counter.
`O=C(NCC1CCCCC1)Nc1ccncc1` [Example 75, N-Cyclohexylmethyl-N′-(4-pyridyl)urea] gave an IC50 of 6030 nM.
`O=C(NCC1CCCCC1)Nc1ccc2c(c1)C(=O)NC2=O` [Example 76, N-Cyclohexylmethyl-N′-(1,3-dioxo-2,3-dihydro-1H-5-isoindolyl)urea] showed an IC50 of 1690 nM.
Compound `O=C(NCc1c(F)cc(F)cc1F)Nc1ccncc1` [Example 77, N-(4-Pyridyl)-N′-(2,4,6-trifluorobenzyl)urea] has an IC50 of 4070 nM.
With `O=C(Nc1cccc([N+](=O)[O-])c1)Nc1ccc2c(c1)C(=O)NC2=O` [Example 78, N-(1,3-Dioxo-2,3-dihydro-1H-5-isoindolyl)-N′-(3-nitrophenyl)urea] the IC50 was 10400 nM.
`Nc1cccc(NC(=O)Nc2ccc3c(c2)C(=O)NC3=O)c1` [Example 79] was tested, and the IC50 was 8570 nM.
In the case of `O=C(NCc1c(Cl)cccc1Cl)Nc1cc2c(cc1Cl)C(=O)NC2=O` [Example 81, N-(6-Chloro-1,3-dioxo-2,3-dihydro-1H-5-isoindolyl)-N′-(2,6-dichlorobenzyl)urea], the IC50 is reported as 54 nM.
With `O=C(NCc1ccccc1Cl)Nc1ccc2c(c1)C(=O)NC2=O` [Example 82, N-(2-Chlorobenzyl)-N′-(1,3-dioxo-2,3-dihydro-1H-5-isoindolyl)urea] the IC50 was 290 nM.
For `O=C(NCc1ccccc1)Nc1ccc2[nH]ncc2c1` [Example 84, N-Benzyl-N′-(1H-5-indazolyl)urea], the IC50 was 260 nM.
Compound `O=C(NCc1cccc2ccccc12)Nc1ccc2c(c1)C(=O)NC2=O` [Example 85, N-(1,3-Dioxo-2,3-dihydro-1H-5-isoindolyl)-N′-(1-naphthylmethyl)urea] has an IC50 of 180 nM.
With `O=C(NCc1ccccc1[N+](=O)[O-])Nc1ccc2c(c1)C(=O)NC2=O` [Example 86, N-(1,3-Dioxo-2,3-dihydro-1H-5-isoindolyl)-N′-(2-nitrobenzyl)urea] the IC50 was 900 nM.
`Nc1ccccc1CNC(=O)Nc1ccc2c(c1)C(=O)NC2=O` [Example 87] showed an IC50 of 180 nM.
`O=C(NCc1ccc(Cl)cc1Cl)Nc1ccc2c(c1)C(=O)NC2=O` [Example 88, N-(2,4-Dichlorobenzyl)-N′-(1,3-dioxo-2,3-dihydro-1H-5-isoindolyl)urea] was tested, and the IC50 was 440 nM.
`O=C(NCc1c(Cl)ccc(Cl)c1Cl)Nc1ccc2c(c1)C(=O)NC2=O` [Example 89, N-(1,3-Dioxo-2,3-dihydro-1H-5-isoindolyl)-N′-(2,3,6-trichlorobenzyl)urea] gave an IC50 of 300 nM.
Work on `O=C(NCc1c(F)cccc1C(F)(F)F)Nc1ccc2c(c1)C(=O)NC2=O` [Example 91, N-(1,3-Dioxo-2,3-dihydro-1H-5-isoindolyl)-N′-[2-fluoro-6-(trifluoromethyl)benzyl]urea] yielded an IC50 of 99 nM.
`O=C(NCc1ccccc1)Nc1ccncc1` [Example 92, N-Benzyl-N′-(4-pyridyl)urea] was tested, and the IC50 was 10200 nM.
`O=C(NCc1ccccc1[N+](=O)[O-])Nc1ccncc1` [Example 93, N-(2-Nitrobenzyl)-N′-(4-pyridyl)urea] showed an IC50 of 12500 nM.
`O=C(NCc1ccccc1Cl)Nc1ccncc1` [Example 94, N-(2-Chlorobenzyl)-N′-(4-pyridyl)urea] showed an IC50 of 7200 nM.
Work on `O=C(NCc1c(F)cccc1C(F)(F)F)Nc1ccc2[nH]ncc2c1` [Example 96, N-[2-fluoro-6-(trifluoromethyl)benzyl]-N′-(1H-5-indazolyl)urea] yielded an IC50 of 230 nM.
In the case of `O=C(NCc1c(F)c(F)c(F)c(F)c1F)Nc1ccncc1` [Example 97, N-(2,3,4,5,6-Pentafluorobenzyl)-N′-(4-pyridyl)urea], the IC50 is reported as 2100 nM.
With `O=C(NCc1c(F)c(F)c(F)c(F)c1F)Nc1ccc2c(c1)C(=O)NC2=O` [Example 98, N-(1,3-Dioxo-2,3-dihydro-1H-5-isoindolyl)-N′-(2,3,4,5,6-pentafluorobenzyl)urea] the IC50 was 410 nM.
`O=C(NCc1c(F)cc(F)cc1F)Nc1ccc2c(c1)C(=O)NC2=O` [Example 99, N-(1,3-Dioxo-2,3-dihydro-1H-5-isoindolyl)-N′-(2,4,6-trifluorobenzyl)urea] was tested, and the IC50 was 240 nM.
Compound `O=C(NCc1ccc(Cl)cc1Cl)Nc1ccc2[nH]ncc2c1` [Example 100, N-(2,4-Dichlorobenzyl)-N′-(1H-5-indazolyl)urea] has an IC50 of 220 nM.
`O=C(NCc1c(Cl)ccc(Cl)c1Cl)Nc1ccc2[nH]ncc2c1` [Example 101, N-(1H-5-Indazolyl)-N′-(2,3,6-trichloro-benzyl)urea] was tested, and the IC50 was 1800 nM.
With `O=C(NCc1c(F)cc(F)cc1F)Nc1ccc2[nH]ncc2c1` [Example 103, N-(1H-5-Indazolyl)-N′-(2,4,6-trifluorobenzyl)urea] the IC50 was 260 nM.
With `O=C(NCc1ccccc1Cl)Nc1ccc2[nH]ncc2c1` [Example 104, N-(2-Chlorobenzyl)-N′-(1H-5-indazolyl)urea] the IC50 was 240 nM.
In the case of `O=C(NCC1CCCCC1)Nc1ccc2[nH]ncc2c1` [Example 105, N-Cyclohexylmethyl-N′-(1H-5-indazolyl)urea], the IC50 is reported as 390 nM.
Compound `O=C(NCc1c(Cl)cccc1Cl)Nc1ccc2[nH]ncc2c1` [Example 106, N-(2,6-Dichlorobenzyl)-N′-(1H-5-indazolyl)urea] has an IC50 of 1400 nM.
Compound `O=C(NCc1cccc2ccccc12)Nc1ccc2[nH]ncc2c1` [Example 107, N-(1H-5-Indazolyl)-N′-(1-naphthylmethyl)urea] has an IC50 of 470 nM.
For `O=C(NCc1c(F)ccc(F)c1F)Nc1ccncc1` [Example 108, N-(Pyridyl)-N′-(2,3,6-trifluorobenzyl)urea], the IC50 was 3800 nM.
`O=C(NCc1c(F)ccc(F)c1F)Nc1ccc2c(c1)C(=O)NC2=O` [Example 109, N-(1,3-Dioxo-2,3-dihydro-1H-5-isoindolyl)-N′-(2,3,6-trifluorobenzyl)urea] gave an IC50 of 161 nM.
`O=C(NCc1c(F)ccc(F)c1F)Nc1ccc2[nH]ncc2c1` [Example 110, N-(1H-5-Indazolyl)-N′-(2,3,6-trifluorobenzyl)urea] was tested, and the IC50 was 195 nM.
Work on `O=C(NCc1cccc([N+](=O)[O-])c1)Nc1ccncc1` [Example 111, N-(3-Nitrobenzyl)-N′-(4-pyridyl)urea] yielded an IC50 of 1770 nM.
In the case of `Nc1cccc(CNC(=O)Nc2ccc3c(c2)C(=O)NC3=O)c1` [Example 112, N-(3-Aminobenzyl)-N′-(1,3-dioxo-2,3-dihydro-1H-5-isoindolyl)urea], the IC50 is reported as 310 nM.
`COc1cc(CNC(=O)Nc2ccc3[nH]ncc3c2)ccc1O` [Example 113, N-(4-Hydroxy-3-methoxybenzyl)-N′-(1H-5-indazolyl)urea] showed an IC50 of 492 nM.
With `Clc1ccc(CN2CCC(Nc3ccc4[nH]ncc4c3)CC2)cc1Cl` [Example 114, N-[1-(3,4-Dichlorobenzyl)-4-piperidyl]-N-(1H-5-indazolyl)amine] the IC50 was 329 nM.
For `Cc1ccc(CN2CCC(Nc3ccc4[nH]ncc4c3)CC2)cc1C` [Example 115, N-[1-(3,4-Dimethylbenzyl)-4-piperidyl]-N-(1H-5-indazolyl)amine], the IC50 was 372 nM.
For `c1ccc2cc(CN3CCC(Nc4ccc5[nH]ncc5c4)CC3)ccc2c1` [Example 116, N-(1H-5-Indazolyl)-N-[1-(2-naphthylmethyl)-4-piperidyl]amine], the IC50 was 136 nM.
`Fc1cccc(CN2CCC(Nc3ccc4[nH]ncc4c3)CC2)c1` [Example 117, N-[1-(3-Fluorobenzyl)-4-piperidyl]-N-(1H-5-indazolyl)amine] showed an IC50 of 317 nM.
`FC(F)(F)c1ccc(CN2CCC(Nc3ccc4[nH]ncc4c3)CC2)cc1` [Example 118, N-(1H-5-Indazolyl)-N-{1-[4-(trifluoromethyl)benzyl]-4-piperidyl}amine] gave an IC50 of 275 nM.
`COc1cccc(CN2CCC(Nc3ccc4[nH]ncc4c3)CC2)c1` [Example 119, N-(1H-5-Indazolyl)-N-[1-(3-methoxybenzyl)-4-piperidyl]amine] was tested, and the IC50 was 383 nM.
Compound `CCc1ccc(CN2CCC(Nc3ccc4[nH]ncc4c3)CC2)cc1` [Example 120, N-[1-(4-Ethylbenzyl)-4-piperidyl]-N-(1H-5-indazolyl)amine] has an IC50 of 241 nM.
`CCc1ccccc1CN1CCC(Nc2ccc3[nH]ncc3c2)CC1` [Example 121, N-[1-(2-Ethylbenzyl)-4-piperidyl]-N-(1H-5-indazolyl)amine] was tested, and the IC50 was 513 nM.
In the case of `CC(C)c1ccc(CN2CCC(Nc3ccc4[nH]ncc4c3)CC2)cc1` [Example 122, N-(1H-5-Indazolyl)-N-[1-(4-isopropylbenzyl)-4-piperidyl]amine], the IC50 is reported as 309 nM.
Compound `c1ccc(Oc2cccc(CN3CCC(Nc4ccc5[nH]ncc5c4)CC3)c2)cc1` [Example 123, N-(1H-5-Indazolyl)-N-[1-(3-phenoxybenzyl)-4-piperidyl]amine] has an IC50 of 220 nM.
For `Cc1ccc(CN2CCC(Nc3ccc4[nH]ncc4c3)CC2)cc1[N+](=O)[O-]` [Example 124], the IC50 was 238 nM.
Compound `CCN1CCC(Nc2ccc3[nH]ncc3c2)CC1` [Example 125, N-(1-Ethyl-4-piperidyl)-N-(1H-5-indazolyl)-amine] has an IC50 of 747 nM.
`c1cc2[nH]ncc2cc1NC1CCCCC1` [Example 129, N-Cyclohexyl-N-(1H-5-indazolyl)amine] was tested, and the IC50 was 670 nM.
Compound `c1ccc(CCN2CCC(Nc3ccc4[nH]ncc4c3)CC2)cc1` [Example 130, N-(1H-5-Indazolyl)-N-(1-phenethyl-4-piperidyl)amine] has an IC50 of 457 nM.
With `c1cncc(CN2CCC(Nc3ccc4[nH]ncc4c3)CC2)c1` [Example 132, N-(1H-5-Indazolyl)-N-[1-(3-pyridylmethyl)-4-piperidyl]amine] the IC50 was 603 nM.
Compound `c1cc(CN2CCC(Nc3ccc4[nH]ncc4c3)CC2)ccn1` [Example 133, N-(1H-5-Indazolyl)-N-[1-(4-pyridylmethyl)-4-piperidyl]amine] has an IC50 of 680 nM.
`Clc1ccccc1CN1CCC(Nc2ccc3[nH]ncc3c2)CC1` [Example 134, N-[1-(2-Chlorobenzyl)-4-piperidyl]-N-(1H-5-indazolyl)amine] gave an IC50 of 436 nM.
With `Clc1cccc(CN2CCC(Nc3ccc4[nH]ncc4c3)CC2)c1` [Example 135, N-[1-(3-Chlorobenzyl)-4-piperidyl]-N-(1H-5-indazolyl)amine] the IC50 was 285 nM.
Compound `Fc1ccc(CN2CCC(Nc3ccc4[nH]ncc4c3)CC2)cc1` [Example 137, N-[1-(4-Fluorobenzyl)-4-piperidyl]-N-(1H-5-indazolyl)amine] has an IC50 of 478 nM.
`COc1ccc(CN2CCC(Nc3ccc4[nH]ncc4c3)CC2)cc1` [Example 138, N-(1H-5-Indazolyl)-N-[1-(4-methoxybenzyl)-4-piperidyl]amine] was tested, and the IC50 was 355 nM.
